{"source": "patent US8859491B2", "about": "(priority 2011, dated 2014)", "key": {"GLP-1 receptor [1]": {"target": "T1, GLP-1 receptor (Homo sapiens, UniProt P43220)", "T1 construct": "expressed in transfected cells; host or cells: HEK293", "T1 sequence (P43220 24-463, species assumed)": "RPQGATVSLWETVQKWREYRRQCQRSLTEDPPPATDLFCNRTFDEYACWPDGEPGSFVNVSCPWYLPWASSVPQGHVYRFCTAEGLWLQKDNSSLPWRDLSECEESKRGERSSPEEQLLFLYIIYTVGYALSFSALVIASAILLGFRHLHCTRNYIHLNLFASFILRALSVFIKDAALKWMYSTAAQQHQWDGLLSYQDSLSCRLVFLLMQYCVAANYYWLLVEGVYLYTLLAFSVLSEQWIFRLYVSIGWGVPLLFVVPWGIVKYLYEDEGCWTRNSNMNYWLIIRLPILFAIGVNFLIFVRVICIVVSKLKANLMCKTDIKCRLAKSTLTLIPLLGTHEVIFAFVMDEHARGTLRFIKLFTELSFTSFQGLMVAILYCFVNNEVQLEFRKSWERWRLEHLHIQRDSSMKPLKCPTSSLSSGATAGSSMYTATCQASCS", "assay": "GLP-1 Activity (cAMP induction), CRE-luciferase reporter in HEK293 cells", "type": "cell-based", "protocol": "(§1) Luminescence was measured after cell lysis and incubation with luciferin.\nas §1, §1"}, "GLP-1 receptor [2]": {"target": "T1, GLP-1 receptor", "assay": "GLP-1 Binding, [I125]-GLP-1 SPA with receptor membrane extracts"}, "[3]": {"assay": "Administration of GLP-1 conjugates to ovariectomized mice (FIGS. 13, 14)", "type": "in vivo"}, "[4]": {"assay": "Example 25: ovariectomized C57BI/6 mice, 4000 μg/kg sc daily for 7 days", "type": "in vivo"}, "[5]": {"assay": "Administration of GLP-1 conjugates to mice, model not stated (FIGS. 15, 19)", "type": "in vivo", "details": "vs GLP-1 agonist alone or GLP-1 agonist/Estrogen(3-ester) conjugate"}, "[6]": {"assay": "Example 27: DIO mice, sc daily for two weeks", "type": "in vivo", "protocol": "Diet induced obesity mice were administered subcutaneous injections once per day for two weeks with vehicle or 40 or 400 μg/kg of one of the following: […]"}, "[7]": {"assay": "Example 30: DIO wild type, ERβ KO and ERα KO mice, 400 μg/kg sc daily for two weeks", "type": "in vivo", "description": "Diet-induced obesity wild type mice, estrogen receptor beta knock-out (ERβ KO) mice, and estrogen receptor alpha knock-out (ERα KO) mice were administered subcutaneous injections once per day for two weeks with vehicle or 400 μg/kg of one of the following:"}, "[8]": {"assay": "Example 29: DIO mice, 400 μg/kg sc daily for seven days", "type": "in vivo"}, "[9]": {"assay": "Example 16: mice on diabetic diet for 9 months, sc dosing", "type": "in vivo", "details": "low daily dose, 7 days"}, "[10]": {"assay": "Example 19: mice, sc daily for one week", "type": "in vivo", "details": "between days 0 and 7", "protocol": "Mice (N=8, average body weight 55 g) were administered subcutaneous injections once per day for one week with vehicle or one of the following:\nBody weight was measured after 7 days and the change in body weight was determined (FIG. 8a). There was little apparent difference in body weight lowering at these doses for the peptides with and without the estrogen."}, "[11]": {"assay": "Example 20: DIO mice, sc daily", "type": "in vivo", "details": "7 days", "protocol": "Diet induced obesity mice (DIO) (N=8, average body weight 61 g) were administered subcutaneous injections once per day for one or two weeks with vehicle or 40, 400, 1200, or 4000 μg/kg of one of the following: […]"}, "[12]": {"assay": "Example 17: DIO mice, 40 μg/kg sc daily for one week", "type": "in vivo", "details": "between days 0 and 7", "protocol": "Diet-induced obesity (DIO) mice (N=8, average initial body weight=65 g) were subcutaneously injected once per day for one week with vehicle or 40 μg/kg one of the following:\nBody weight was measured after 7 days and the change in body weight and the fat mass were determined (FIG. 6a-b). […] The analysis of fat mass (FIG. 6b) was relatively constant with total loss in body weight."}, "GLP-1 receptor [13]": {"target": "T1, GLP-1 receptor", "assay": "cAMP induction, firefly luciferase reporter assay in HEK293 cells, GLP-1 receptor", "type": "cell-based", "details": "GLP-1 receptor versus glucagon receptor", "protocol": "The ability of each peptide to induce cAMP was measured in a firefly luciferase-based reporter assay. […] HEK293 cells co-transfected with the receptor and luciferase gene linked to a cAMP responsive element were employed for the bioassay.\nAt the end of the incubation, 100 μL of LucLite luminescence substrate reagent (Perkin Elmer, Wellesley, Mass.) were added to each well. […] All EC50s and IC50s are reported in the following examples in nM, unless indicated otherwise."}, "[14]": {"assay": "Example 21: mice on diabetic diet, sc daily for one week", "type": "in vivo", "details": "between days 0 and 7"}, "glucocorticoid receptor": {"target": "T2, glucocorticoid receptor (Homo sapiens, UniProt P04150)", "T2 construct": "two clones of HeLa cells (ATCC #CCL-2) transfected with murine mammary tumor virus long terminal repeat-driven firefly luciferase; host or cells: HeLa", "T2 sequence (P04150 1-777)": "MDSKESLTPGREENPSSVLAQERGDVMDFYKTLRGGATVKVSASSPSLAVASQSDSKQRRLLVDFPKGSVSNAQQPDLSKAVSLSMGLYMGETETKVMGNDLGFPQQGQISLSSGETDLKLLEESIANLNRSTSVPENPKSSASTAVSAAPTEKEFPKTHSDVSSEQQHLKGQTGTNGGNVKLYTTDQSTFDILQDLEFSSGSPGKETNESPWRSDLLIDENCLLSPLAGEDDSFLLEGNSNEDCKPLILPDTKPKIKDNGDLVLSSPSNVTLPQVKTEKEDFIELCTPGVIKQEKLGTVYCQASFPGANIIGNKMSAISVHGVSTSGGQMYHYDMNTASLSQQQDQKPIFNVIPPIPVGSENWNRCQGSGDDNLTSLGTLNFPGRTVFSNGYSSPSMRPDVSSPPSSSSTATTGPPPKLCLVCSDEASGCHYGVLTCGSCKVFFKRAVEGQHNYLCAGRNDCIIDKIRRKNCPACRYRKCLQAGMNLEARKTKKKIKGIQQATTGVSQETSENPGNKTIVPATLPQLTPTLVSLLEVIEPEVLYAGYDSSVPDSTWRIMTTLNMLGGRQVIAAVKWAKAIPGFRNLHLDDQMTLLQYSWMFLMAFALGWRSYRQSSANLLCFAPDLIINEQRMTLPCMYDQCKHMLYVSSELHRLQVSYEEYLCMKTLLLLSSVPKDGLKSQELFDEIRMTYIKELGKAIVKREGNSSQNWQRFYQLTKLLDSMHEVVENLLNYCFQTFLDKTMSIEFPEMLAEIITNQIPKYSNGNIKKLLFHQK", "assay": "Glucocorticoid receptor luciferase reporter gene assay in HeLa cell clones (MMTV-LTR luciferase)", "type": "cell-based", "details": "Example 37; two HeLa reporter clones; compared with unconjugated dexamethasone", "protocol": "The activities of the peptide conjugates in Examples 32 and 33 at the glucocorticoid receptor were tested in the luciferase reporter gene assay using two clones of HeLa cells (ATCC #CCL-2) transfected with murine mammary tumor virus long terminal repeat-driven firefly luciferase."}}, "note": "Non-standard residues stand in square brackets, D forms with d. No end group written: not given here. *: point of attachment. β‑estradiol 3‑ether = C[C@]12CC[C@@H]3c4ccc(O*)cc4CC[C@H]3[C@@H]1CC[C@@H]2O; Aib = CC(C)(N)C(=O)O"}
{"molecule": "CC[C@H](C)[C@H](NC(=O)[C@H](Cc1ccccc1)NC(=O)[C@H](CCC(=O)O)NC(=O)[C@H](CCCCN)NC(=O)[C@H](C)NC(=O)[C@H](C)NC(=O)[C@H](CCC(N)=O)NC(=O)[C@H](CCC(=O)O)NC(=O)[C@H](CCC(=O)O)NC(=O)[C@H](CC(C)C)NC(=O)[C@H](Cc1ccc(O)cc1)NC(=O)[C@H](CO)NC(=O)[C@H](CO)NC(=O)[C@@H](NC(=O)[C@H](CC(=O)O)NC(=O)[C@H](CO)NC(=O)[C@@H](NC(=O)[C@H](Cc1ccccc1)NC(=O)[C@@H](NC(=O)CNC(=O)[C@H](CCC(=O)O)NC(=O)C(C)(C)NC(=O)[C@@H](N)Cc1c[nH]cn1)[C@@H](C)O)[C@@H](C)O)C(C)C)C(=O)N[C@@H](C)C(=O)N[C@@H](Cc1c[nH]c2ccccc12)C(=O)N[C@@H](CC(C)C)C(=O)N[C@H](C(=O)N[C@@H](CCCCN)C(=O)NCC(=O)NCC(=O)N1CCC[C@H]1C(=O)N[C@@H](CO)C(=O)N[C@@H](CO)C(=O)NCC(=O)N[C@@H](C)C(=O)N1CCC[C@H]1C(=O)N1CCC[C@H]1C(=O)N1CCC[C@H]1C(=O)N[C@@H](CO)C(=O)N[C@@H](CCCCNC(=O)COc1ccc2c(c1)CC[C@@H]1[C@@H]2CC[C@]2(C)[C@@H](O)CC[C@@H]12)C(N)=O)C(C)C", "note": "[GLP-1/Estrogen(3-ether)]", "values": [{"measurement": "EC50", "setting": "GLP-1 receptor [1]", "result": "0.012 ± 0.003", "unit": "nM"}, {"measurement": "IC50", "setting": "GLP-1 receptor [2]", "result": "0.717 ± 0.135", "unit": "nM"}]}
{"molecule": "GLP-1 agonist/Estrogen(3-ether): active, estrogen-stable GLP-1 agonist/Estrogen(3-ether) conjugate (H[Aib]EGTFTSDVSSYLEEQAAKEFIAWLVKGGPSSGAPPPSK(β‑estradiol 3‑ether)-NH2)", "values": [{"measurement": "fat mass", "setting": "[3]; FIG. 13b", "result": "decrease in fat mass"}, {"measurement": "blood glucose levels", "setting": "[3]; FIG. 13d", "result": "decrease in blood glucose levels greater than vehicle"}, {"measurement": "change in body weight", "setting": "[3]; vs GLP-1 agonist alone and the inactive d-amino acid conjugates, FIG. 13a", "result": "greater decrease"}, {"measurement": "food intake", "setting": "[3]; vs GLP-1 agonist alone and the inactive d-amino acid conjugates, FIG. 13c", "result": "consumed less food"}, {"measurement": "change in blood glucose", "setting": "[4]; 4000 μg/kg", "result": "decrease in blood glucose levels greater than vehicle"}, {"measurement": "fat mass", "setting": "[4]; 4000 μg/kg", "result": "decrease in fat mass"}, {"measurement": "change in body weight", "setting": "[4]; 4000 μg/kg, after 7 days", "result": "greater decrease in body weight"}, {"measurement": "cumulative food intake", "setting": "[4]; 7 days", "result": "consumed less food"}, {"measurement": "change in body weight", "setting": "[5]; FIG. 15a", "result": "significantly greater decrease"}, {"measurement": "cumulative food intake", "setting": "[5]; FIG. 15b", "result": "significantly less food"}, {"measurement": "change in body weight", "setting": "[6]; 40 or 400 μg/kg, after 15 days", "result": "significantly greater decrease in body weight"}, {"measurement": "cumulative food intake", "setting": "[6]; 15 days", "result": "consumed significantly less food"}, {"measurement": "decrease in body weight", "setting": "[7]; ERα KO mice, two weeks", "result": "~20", "unit": "%"}, {"measurement": "decrease in body weight", "setting": "[7]; ERβ KO mice, two weeks", "result": "~15", "unit": "%"}, {"measurement": "cumulative food intake", "setting": "[7]; knock-out mice", "result": "consumed the least amount of food"}, {"measurement": "decrease in body weight", "setting": "[7]; wild type DIO mice, two week period", "result": "~10", "unit": "%"}, {"measurement": "change in body weight", "setting": "[8]; after 7 days", "result": "greatest decrease in body weight"}, {"measurement": "change in blood glucose", "setting": "[8]; over 7 days", "result": "decrease in blood glucose levels over 7 days, with the decrease greater in mice that were administered the conjugate"}]}
{"molecule": "GLP-1(Aib^2E^16C^24(PEG-40 kDa)Cex K^40): GLP-1 analog PEGylated (40 kDa) at Cys24 (H[Aib]EGTFTSDVSSYLEEQAAKEFIC(PEG 40 kDa thioether)WLVKGGPSSGAPPPSK-NH2)", "values": [{"measurement": "cumulative food intake", "setting": "[9]", "result": "consumed the least amount of food"}]}
{"molecule": "GLP-1(Aib^2E^16Cex K^40)/Estrogen(3-ester): E16 GLP-1 analog conjugated to estrogen by 3-ester (H[Aib]EGTFTSDVSSYLEEQAAKEFIAWLVKGGPSSGAPPPSK-NH2; not fully specified (residue 40))", "values": [{"measurement": "change in blood glucose levels", "setting": "[10]", "result": "greatest change in blood glucose levels"}, {"measurement": "cumulative food intake", "setting": "[11]", "result": "consumed significantly less food than mice that were administered GLP-1 alone"}]}
{"molecule": "GLP-1(Aib^2E^16Cex K^40)/Estrogen(17-ester): E16 GLP-1 analog conjugated to estrogen by 17-ester (H[Aib]EGTFTSDVSSYLEEQAAKEFIAWLVKGGPSSGAPPPSK-NH2; not fully specified (residue 40))", "values": [{"measurement": "change in blood glucose", "setting": "[12]", "result": "greatest change in blood glucose"}]}
{"molecule": "SEQ ID NO: 22: glucagon analog generated by substituting the native glutamine at position 3 with glutamic acid", "values": [{"measurement": "selectivity for the GLP-1 receptor", "setting": "GLP-1 receptor [13]", "result": "approximately a tenfold selectivity"}]}
{"molecule": "SEQ ID NO: 1659: GLP-1 based glucagon superfamily peptide conjugated to estradiol or estrone through a hydrolyzable linkage ([dA][Aib][dE]G[dT][dF][dT][dS][dD][dV][dS][dS][dY][dL][dE]G[dQ][dA][dA][dK][dE][dA][dI][dA][dW][dL][dV][dK]GG[dP][dS][dS]G[dA][dP][dP][dP][dS]K-NH2; not fully specified (residue 40))", "values": [{"measurement": "change in blood glucose levels", "setting": "[14]", "result": "greater change in blood glucose levels"}]}
{"molecule": "[Aib2, E16]GLP-1-CEX-Lys40(NHCO—O-DEX)", "values": [{"measurement": "agonist activity at the glucocorticoid receptor", "setting": "glucocorticoid receptor", "result": "retained the greatest amount of activity at the glucocorticoid receptor"}]}
